Results from patent US8053627B2, “Methods for treating demyelination disorders” (University of Chicago, priority 2005, dated 2011).

What was measured:
[1] = test system: oligodendrocytes in adult mice; experiment: IFN-γ expression in the CNS of adult mice (released from doxycycline at 4 weeks of age); format: in vivo
Excerpt: Compared with the actively myelinating oligodendrocytes of young growing animals, oligodendrocytes in adult mice produce lower levels of membrane proteins and lipids, just enough to maintain homeostasis in the myelin structure (Morell, et al. (1999) Basic Neurochemistry: Molecular, Cellular, and Medical Aspects (Philadelphia, Pa.: Lippincott-Raven Publishers): 69-93). The ER of oligodendrocytes in adult animals may thus have more spare capacity to process increased protein load and as such may be less sensitive to disruptions of the protein secretory pathway. To examine this possibility, double transgenic mice were allowed to develop to maturity, at which time IFN-γ expression in the CNS was initiated.

[2] = test system: corpus callosum of double transgenic mice treated with cuprizone; experiment: Cuprizone-induced demyelination/remyelination in GFAP/tTA; TRE/IFN-γ double transgenic mice (DOX− expresses IFN-γ); format: in vivo
Method: The effects of IFN-γ on demyelination were evaluated in a cuprizone animal model using transgenic mice that allow for temporally regulated delivery of IFN-γ using the tetracycline controllable system (Lin, et al. (2004) J. Neurosci. 24: 10074-10083). The transgenic mice were generated by mating line 110 GFAP/tTA mice on the C57BL/6 background with line 184 TRE/IFN-γ on the C57BL/6 background to produce GFAP/tTA; TRE/IFN-γ double transgenic mice (Lin, et al. (2004) J. Neurosci. 24: 10074-10083). Transcriptional activation of the TRE/IFN-γ transgene by tTA was repressed in the control (DOX+) mice by adding 0.05 mg/ml doxycycline to the drinking water which was provided ad libitum from the day of conception. The DOX+ double transgenic mice were GFAP/tTA; TRE/IFN-γ double transgenic animals fed cuprizone chow and never released from the doxycycline solution. DOX− double transgenic mice were GFAP/tTA; TRE/IFN-γ double transgenic animals fed cuprizone chow and released from doxycycline to induce expression of IFN-γ.
Demyelination was induced in 6-week-old DOX+ and DOX− male mice by feeding the mice a diet of milled mouse chow containing 0.2% cuprizone (Sigma-Aldrich, St. Louis, […].) for up to 6 weeks. Subsequently, both groups of mice were returned to a normal diet for up to 3 weeks to allow remyelination to occur. All animal procedures were conducted in complete compliance with the NIH Guide for the Care and Use of Laboratory Animals and were approved by the Institutional Animal Care and Use Committee of The University of Chicago.
The expression of IFN-γ in these animals was examined by Enzyme-Linked Immunosorbent Assay (ELISA) analysis as follows. Spinal cord and forebrains were removed, rinsed in ice cold PBS, and immediately homogenized in five volumes of PBS with complete protease cocktail (Roche, Indianapolis, Ind.) using a motorized homogenizer. After incubation on ice for 5 min the extracts were cleared by centrifugation at 14000 rpm for 10 min. The protein content of each extract was determined by the DC protein assay (Bio-Rad, Hercules, Calif.). ELISA assays were performed using Mouse IFN-γ Quantikine ELISA kit (R&D system, Minneapolis, Minn.) and MBP antibodies (1:1000; Sternberger Monoclonals) according to the manufacture's instructions.
Real time PCR was used to determine the effect of IFN-yon the expression of MHC-1. RNA was isolated from the corpus callosum (Jurevics, et al., 2002) using Trizol reagent (Invitrogen, Carlsbad, Calif.) and treated with DNAseI (Invitrogen, Carlsbad, Calif.) to eliminate genomic DNA. Reverse transcription was performed using Superscript First Strand Synthesis System for RT-PCR kit (Invitrogen, Carlsbad, Calif.). Real-time PCR was performed with iQ supermix (Bio-Rad, Hercules Calif.) on a Bio-Rad iQ real-time PCR detection system (Bio-Rad, Hercules Calif.). The primers and probes (Integrated DNA Technologies Inc., Coralville, Iowa) for real-time PCR were as follows:
The effect of INF-γ on the population of oligodendrocytes was evaluated by immunohistochemical analysis of oligodendrocytes using an anti-CC1 antibody (APC7, 1:50; EMD Biosciences, Inc., La Jolla, Calif.) Immunohistochemistry was perfomed on brain sections obtained from mice that were first anesthetized mice and perfused through the left cardiac ventricle with 4% paraformaldehyde in 0.1M PBS. The brains were removed, postfixed with paraformaldehyde, cryopreserved in 30% sucrose, embedded in OCT and frozen on dry ice. Frozen sections were cut in a cryostat at a thickness of 10 μm. […]

## IFN-γ: pleotropic cytokine secreted by activated T lymphocytes and natural killer cells; delivered to the CNS by transgene or added as recombinant protein
[1]; 10-week-old double transgenic mice
  BIP and CHOP in the cerebellum: modest induction
[1]; 10-week-old, wild-type or PERK+/− background
  myelin in the CNS (ultrastructural examination): normal myelin
[1]; adult mice, also PERK+/− background
  oligodendrocyte survival: did not affect
[2]; DOX− mice, 8 weeks
  CC1 positive oligodendrocytes within the corpus callosum: 78±12.7 /0.04 mm2
[2]; DOX− mice, week 4 of cuprizone treatment
  NG2 positive OPCs in the corpus callosum: 46±4.24 /0.04 mm^2
[2]; DOX− mice, week 6
  NG2 positive OPCs in the corpus callosum: 31.5±0.71 /0.04 mm^2
[2]; DOX− mice, week 6 and week 8
  expression of myelin genes MBP, PLP and CGT: significantly depressed
[2]; DOX− mice, week 8
  remyelinated axons (EM): 26.9%±7%
[2]; demyelination phase
  effect on the initial pathological processes induced by cuprizone exposure: does not have a significant effect
[2]; during remyelination
  expression of MHC-I in the corpus callosum (real-time PCR): significant increase
